Measurements taken from patent publication US7192746B2, “α-Isomaltosyltransferase, process for producing the same and use thereof” (Kabushiki Kaisha Hayashibara Seibutsu Kagaku Kenkyujo, priority 2000, dated 2007).

Experiments:
Type in all cases: biochemical
[1] = system: α-isomaltosyl-transferring enzyme from Bacillus globisporus N75; assay: Formation of reducing power from high molecular glucans; details: Enzyme of Strain N75
Experimental: (§1) In the above experiment, no detectable amount of a lower molecular weight saccharide such as cyclotetrasaccharide detectable on TLC was formed from soluble starch, pullulan and dextran as high molecular glucans. The following test was carried out to confirm that the α-isomaltosyl-transferring enzyme of the present invention neither increase the reducing power of the above high molecular glucans nor hydrolyze them. To a solution of soluble starch, pullulan or dextran was added 12 units/g substrate of a purified specimen of α-isomaltosyl-transferring enzyme from either Bacillus globisporus C9 obtained by the method in Experiment 4, Bacillus globisporus C11 obtained by the method in Experiment 7, Bacillus globisporus N75 obtained by the method in Experiment 11, or Arthrobacter ramosus S1 obtained by the method in Experiment 15. The resulting each solution was adjusted to give a substrate concentration of one percent (w/v) and incubated at 35° C. and pH 6.0 for four hours. The reducing saccharide contents and the total sugar contents in the resulting reaction mixtures after the enzymatic reactions were respectively quantified by the Somogyi-Nelson's method and the anthrone-sulfuric acid reaction method. The percentage of forming reducing power was calculated by the following equation, and the results are in Table 13:
(§2) [formula] [formula] AR: Reducing sugar content after enzymatic reaction. AT: Total sugar content after enzymatic reaction. BR: Reducing sugar content before enzymatic reaction. BT: Total sugar content before enzymatic reaction.

[2] = system: α-isomaltosyl-transferring enzyme from Arthrobacter ramosus S1; assay: as above; details: printed Enzyme of Strain N75 a second time
Experimental: as §1, §2

[3] = system: α-isomaltosyl-transferring enzyme from Bacillus globisporus C9; assay: Action on saccharides (substrates, TLC); parameters: key: −: there was found no substrate change before and after the enzymatic reaction; +: there were found both the reduction of substrate and the formation of cyclotetrasaccharide after the enzymatic reaction; details: 2 units/g substrate, 2% (w/v) substrate, 30° C., pH 6.0, 24 hours
Outline: (§3)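 Each candidate saccharide, from malto- and isomalto-oligosaccharides to cyclodextrins, starch, pullulan and dextran, was prepared at 2% (w/v). Two units/g substrate of enzyme were added, then the mixture was held at pH 6.0, 30° C., 24 hours. Samples were then analysed by silica gel TLC.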

[4] = system: α-isomaltosyl-transferring enzyme from Bacillus globisporus C11; assay: Action on saccharides (substrates, TLC); parameters: key: −: there was found no substrate change before and after the enzymatic reaction; +: there were found both the reduction of substrate and the formation of cyclotetrasaccharide after the enzymatic reaction; details: 2 units/g substrate, 2% (w/v) substrate, 30° C., pH 6.0, 24 hours
Outline: as §3

[5] = system: α-isomaltosyl-transferring enzyme from Bacillus globisporus N75; assay: Action on saccharides (substrates, TLC); parameters: key: −: there was found no substrate change before and after the enzymatic reaction; +: there were found both the reduction of substrate and the formation of cyclotetrasaccharide after the enzymatic reaction; details: 2 units/g substrate, 2% (w/v) substrate, 30° C., pH 6.0, 24 hours
Outline: as §3

[6] = system: α-isomaltosyl-transferring enzyme from Arthrobacter ramosus S1; assay: Action on saccharides (substrates, TLC); parameters: key: −: there was found no substrate change before and after the enzymatic reaction; +: there were found both the reduction of substrate and the formation of cyclotetrasaccharide after the enzymatic reaction; details: 2 units/g substrate, 2% (w/v) substrate, 30° C., pH 6.0, 24 hours
Outline: as §3

[7] = system: α-isomaltosyl-transferring enzyme from Arthrobacter globiformis A19; assay: Action on saccharides (substrates, TLC); parameters: key: −: there was found no substrate change before and after the enzymatic reaction; +: there were found both the reduction of substrate and the formation of cyclotetrasaccharide after the enzymatic reaction; details: partially purified enzyme, 2 units/g substrate, 2% (w/v) substrate, 30° C., pH 6.0, 24 hours
Outline: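 Substrates 2% (w/v), enzyme 2 units/g substrate, pH 6.0, 30° C., 24 h. Read-out: silica TLC, n-butanol:pyridine:water 6:4:1; sulfuric acid-methanol (total sugar) and diphenylamine-aniline (reducing sugar) staining, pre- vs post-reaction.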

[8] = system: α-isomaltosyl-transferring enzyme from Bacillus globisporus C9; assay: Formation of reducing power from high molecular glucans; details: Enzyme of Strain C9
Experimental: as §1, with “The resulting each solution was adjusted to give a substrate concentration of one percent (w/v) and incubated at 35° C. and pH 6.0 for four hours.” left out
as §2

[9] = system: α-isomaltosyl-transferring enzyme from Bacillus globisporus C11; assay: as above; details: Enzyme of Strain C11
Experimental: as §1, with “The resulting each solution was adjusted to give a substrate concentration of one percent (w/v) and incubated at 35° C. and pH 6.0 for four hours.” left out
as §2

[10] = system: α-isomaltosyl-transferring enzyme from Bacillus globisporus C9; assay: Formation of cyclotetrasaccharide from components A, B and C; details: Enzyme of Strain C9, 35° C., 8 hours; for Saccharide composition, remaining Substrate: 1% (w/v) substrate, pH 6.0, 1 unit/g substrate
Experimental: (§4) Using a purified α-isomaltosyl-transferring enzyme, the formation of cyclotetrasaccharide from the above-identified components A, B and C was examined as follows: One percent (w/v) of an aqueous solution (pH 6.0) of the component A (3-O-α-isomaltosylpanose represented by Chemical Formula 1), the component B (4-O-α-isomaltosylpanose represented by Chemical Formula 2), or the component C (1-O-α-isomaltosyl-β-panoside represented by Chemical Formula 3) was prepared into a substrate solution. To each of the resulting solutions was added one unit/g substrate of a purified specimen of α-isomaltosyl-transferring enzyme from Bacillus globisporus C9 obtained by the method in Experiment 4, or Bacillus globisporus C11 obtained by the method in Experiment 7, followed by enzymatic reaction at 35° C. for eight hours. Thereafter, the resulting mixtures were analyzed on HPLC for saccharide composition (%).

[11] = system: α-isomaltosyl-transferring enzyme from Bacillus globisporus C11; assay: as above; details: Enzyme of Strain C11, 35° C., 8 hours; for Saccharide composition, remaining Substrate: 1% (w/v) substrate, pH 6.0, 1 unit/g substrate
Experimental: as §4

[12] = 0 hr, 12 units/g substrate, 1% (w/v), 35° C., pH 6.0

Row | Molecule | Percentage of forming reducing power [1, 12] [%] | Percentage of forming reducing power ([1]; 1 hr) [%] | Percentage of forming reducing power ([1]; 2 hr) [%] | Percentage of forming reducing power ([1]; 3 hr) [%] | Percentage of forming reducing power ([1]; 4 hr) [%] | Percentage of forming reducing power [2, 12] [%] | Percentage of forming reducing power ([2]; 1 hr) [%] | Percentage of forming reducing power ([2]; 2 hr) [%] | Percentage of forming reducing power ([2]; 3 hr) [%] | Percentage of forming reducing power ([2]; 4 hr) [%] | Enzymatic action for forming cyclotetrasaccharide, Enzyme of Strain C9 [3] | Enzymatic action for forming cyclotetrasaccharide, Enzyme of Strain C11 [4] | Enzymatic action for forming cyclotetrasaccharide, Enzyme of Strain N75 [5] | Enzymatic action for forming cyclotetrasaccharide, Enzyme of Strain S1 [6] | Enzymatic action for forming cyclotetrasaccharide, Enzyme of Strain A19 [7] | Percentage of forming reducing power [8, 12] [%] | Percentage of forming reducing power ([8]; 1 hr) [%] | Percentage of forming reducing power ([8]; 2 hr) [%] | Percentage of forming reducing power ([8]; 3 hr) [%] | Percentage of forming reducing power ([8]; 4 hr) [%] | further results
1 | soluble starch | 0.0 | 0.0 | 0.0 | 0.0 | 0.0 | 0.0 | 0.0 | 0.0 | 0.0 | 0.0 | − | − | − | − | − | 0.0 | 0.0 | 0.0 | 0.0 | 0.0 | Percentage of forming reducing power [9, 12]: 0.0%; Percentage of forming reducing power ([9]; 1 hr): 0.1%; Percentage of forming reducing power ([9]; 2 hr): 0.0%; Percentage of forming reducing power ([9]; 3 hr): 0.0%; Percentage of forming reducing power ([9]; 4 hr): 0.0%
2 | pullulan | 0.0 | 0.0 | 0.0 | 0.0 | 0.0 | 0.0 | 0.0 | 0.0 | 0.0 | 0.0 | − | − | − | − | − | 0.0 | 0.0 | 0.0 | 0.0 | 0.0 | Percentage of forming reducing power [9, 12]: 0.0%; Percentage of forming reducing power ([9]; 1 hr): 0.0%; Percentage of forming reducing power ([9]; 2 hr): 0.0%; Percentage of forming reducing power ([9]; 3 hr): 0.0%; Percentage of forming reducing power ([9]; 4 hr): 0.0%
3 | OC[C@H]1O[C@H](OC[C@H]2O[C@H](O[C@@H]3O[C@H](CO)[C@@H](O[C@H]4O[C@H](CO[C@H]5O[C@H](CO)[C@@H](O)[C@H](O)[C@H]5O)[C@@H](O)[C@H](O)[C@H]4O)[C@H](O)[C@H]3O)[C@H](O)[C@@H](O)[C@@H]2O)[C@H](O)[C@@H](O)[C@@H]1O [Component C, 1-O-α-isomaltosyl-β-panoside] |  |  |  |  |  |  |  |  |  |  |  |  |  |  |  |  |  |  |  |  | Saccharide composition, remaining Substrate [10]: 55.8%; Saccharide composition, Cyclotetrasaccharide [10]: 6.0%; Saccharide composition, Glucose [10]: 0.2%; Saccharide composition, Others [10]: 38.0%; Saccharide composition, remaining Substrate [11]: 56.0%; Saccharide composition, Cyclotetrasaccharide [11]: 5.9%; Saccharide composition, Glucose [11]: 0.2%; Saccharide composition, Others [11]: 37.9%
4 | OC[C@H]1O[C@H](OC[C@H]2O[C@H](O[C@H]3[C@H](O)[C@@H](O)[C@@H](OC[C@H]4O[C@H](O[C@H]5[C@H](O)[C@@H](O)C(O)O[C@@H]5CO)[C@H](O)[C@@H](O)[C@@H]4O)O[C@@H]3CO)[C@H](O)[C@@H](O)[C@@H]2O)[C@H](O)[C@@H](O)[C@@H]1O (stereo partly drawn) [Component B, 4-O-α-isomaltosylpanose] |  |  |  |  |  |  |  |  |  |  |  |  |  |  |  |  |  |  |  |  | Saccharide composition, remaining Substrate [10]: 77.1%; Saccharide composition, Cyclotetrasaccharide [10]: 5.1%; Saccharide composition, Glucose [10]: 0.7%; Saccharide composition, Others [10]: 17.1%; Saccharide composition, remaining Substrate [11]: 77.0%; Saccharide composition, Cyclotetrasaccharide [11]: 5.0%; Saccharide composition, Glucose [11]: 0.6%; Saccharide composition, Others [11]: 17.4%
5 | dextran | 0.0 | 0.0 | 0.0 | 0.0 | 0.0 | 0.0 | 0.0 | 0.0 | 0.0 | 0.0 | − | − | − | − | − | 0.0 | 0.0 | 0.0 | 0.1 | 0.0 | Percentage of forming reducing power [9, 12]: 0.0%; Percentage of forming reducing power ([9]; 1 hr): 0.0%; Percentage of forming reducing power ([9]; 2 hr): 0.0%; Percentage of forming reducing power ([9]; 3 hr): 0.0%; Percentage of forming reducing power ([9]; 4 hr): 0.0%
